Here are results for 27 compounds from patent US9491941B2, “(Hetero) arylacrylamides for the control of ectoparasites” (Novartis Tiergesundheit AG, priority 2012, dated 2016).

The experiment deals with Lepeophtheirus Salmonis at Copeodid Stage (sea lice copepodids). Put plainly: Activity in vitro against Lepeophtheirus salmonis at copepodid stage. The conditions noted are these: copepodids 1 hour contact in sea water, then 48 h untreated sea water; no movement over 80 seconds; serial dilution (MED). The method, then:
3—Activity In Vitro Against Lepeophtheirus Salmonis at Copeodid Stage
Sea lice copepodids were used to seed a 96-well plate containing the test substances to be evaluated for antiparasitic activity. Each compound was tested by serial dilution in order to determine its minimal effective dose (MED). Copepodids were left in contact with the test compound diluted in sea water for 1 hour. They were then incubated in untreated sea water for 48 h. Efficacy against sea lice was then confirmed if no copepodid moved over a period of 80 seconds.
For `O=C(/C=C/c1ccc(C(=O)NCC2CC2)c2ccccc12)NC(c1cccc(C(F)(F)F)c1)C(F)(F)F` (stereo not drawn) [Example 1.1, N-(cyclopropylmethyl)-4-[(1E)-2-({2,2,2-trifluoro-1-[3-(trifluoromethyl)phenyl]ethyl}carbamoyl)eth-1-en-1-yl]naphthalene-1-carboxamide], the “efficacy (EC80)” value is 50 ppb.

For `O=C(/C=C/c1ccc(C(=O)NCc2ccco2)c2ccccc12)NC(c1cccc(C(F)(F)F)c1)C(F)(F)F` (stereo not drawn) [Example 1.3], the “efficacy (EC80)” value was 50 ppb. With `O=C(/C=C/c1ccc(C(=O)NC2CC2)c2ccccc12)NC(c1cccc(C(F)(F)F)c1)C(F)(F)F` (stereo not drawn) [Example 1.5], the “efficacy (EC80)” value was 5 ppb. The same measure for `O=C(/C=C/c1ccc(C(=O)NC2CSC2)c2ccccc12)NC(c1cccc(C(F)(F)F)c1)C(F)(F)F` (stereo not drawn) [Example 1.10]: 50 ppb.

As to `CCNC(=O)c1ccc(/C=C/C(=O)NC(c2cccc(C(F)(F)F)c2)C(F)(F)F)c2ccccc12` (stereo not drawn) [Example 1.13], the “efficacy (EC80)” value worked out at 50 ppb.

`N#CC1(NC(=O)c2ccc(/C=C/C(=O)NC(c3cccc(C(F)(F)F)c3)C(F)(F)F)c3ccccc23)CC1` (stereo not drawn) [Example 1.26]: the “efficacy (EC80)” value is reported as 0.5 ppb. The same measure for `CC(C)NC(=O)c1ccc(/C=C/C(=O)NC(c2cccc(C(F)(F)F)c2)C(F)(F)F)c2ccccc12` (stereo not drawn) [Example 1.27]: 50 ppb; for `CCN1OCC(NC(=O)c2ccc(/C=C/C(=O)NC(c3cccc(C(F)(F)F)c3)C(F)(F)F)c3ccccc23)C1=O` (stereo not drawn) [Example 1.34]: 50 ppb. Take `O=C(/C=C/c1ccc(C(=O)NC2CC(F)(F)C2)c2ccccc12)NC(c1cccc(C(F)(F)F)c1)C(F)(F)F` (stereo not drawn) [Example 1.35]: the “efficacy (EC80)” value came to 50 ppb.

Consider `O=C(/C=C/c1ccc(C(=O)NC2CC(F)C2)c2ccccc12)NC(c1cccc(C(F)(F)F)c1)C(F)(F)F` (stereo not drawn) [Example 1.36], for which the “efficacy (EC80)” value came out at 50 ppb.

In the case of `O=C(C=Cc1ccc(C(=O)NC2CC2F)c2ccccc12)NC(c1cccc(C(F)(F)F)c1)C(F)(F)F` (stereo not drawn) [Example 1.40], the “efficacy (EC80)” value stood at 50 ppb. `CC1(NC(=O)c2ccc(/C=C/C(=O)NC(c3cccc(C(F)(F)F)c3)C(F)(F)F)c3ccccc23)CCC1` (stereo not drawn) [Example 1.41]: the “efficacy (EC80)” value is 5 ppb. As to `O=C(/C=C/c1ccc(C(=O)NCC2CSC2)c2ccccc12)NC(c1cccc(C(F)(F)F)c1)C(F)(F)F` (stereo not drawn) [Example 1.43], the “efficacy (EC80)” value came to 5 ppb. `N#CC1(NC(=O)c2ccc(/C=C/C(=O)NC(c3cccc(C(F)(F)F)c3)C(F)(F)F)c3ccccc23)CCC1` (stereo not drawn) [Example 1.44]: the “efficacy (EC80)” value is listed as 50 ppb. For the compound `O=C(/C=C/c1ccc(C(=O)NC2CON(CC(F)(F)F)C2=O)c2ccccc12)NC(c1cccc(C(F)(F)F)c1)C(F)(F)F` (stereo not drawn) [Example 1.46], the “efficacy (EC80)” value was determined as 50 ppb. The same measure for `O=C(/C=C/c1ccc(C(=O)NC2CC2)c2ccccc12)NC(c1cccc(Br)c1)C(F)(F)F` (stereo not drawn) [Example 1.56]: 50 ppb; for `Cc1cccc(C(NC(=O)/C=C/c2ccc(C(=O)NC3CC3)c3ccccc23)C(F)(F)F)c1` (stereo not drawn) [Example 1.58]: 50 ppb. Under `O=C(/C=C/c1ccc(C(=O)NC2CC2)c2ccccc12)NC(c1cccc(OC(F)(F)F)c1)C(F)(F)F` (stereo not drawn) [Example 1.61] stands 0.5 ppb; under `O=C(/C=C/c1ccc(C(=O)NC2CC2)c2ccccc12)NC(c1cc(Cl)cc(Cl)c1)C(F)(F)F` (stereo not drawn) [Example 1.62], 50 ppb. For `O=C(/C=C/c1ccc(C(=O)NC2CC2)c2ccccc12)NC(c1ccc(Cl)c(Cl)c1)C(F)(F)F` (stereo not drawn) [Example 1.63], the “efficacy (EC80)” value amounted to 50 ppb. Consider `O=C(/C=C/c1ccc(C(=O)NC2CC2)c2ccccc12)NC(c1cc(Cl)c(Cl)c(Cl)c1)C(F)(F)F` (stereo not drawn) [Example 1.64], for which the “efficacy (EC80)” value amounted to 5 ppb.

With `O=C(/C=C/c1ccc(C(=O)NC2CC2)c2ccccc12)NC(c1cccc(F)c1)C(F)(F)F` (stereo not drawn) [Example 1.65], the “efficacy (EC80)” value is recorded as 5 ppb.

As to `O=C(/C=C/c1ccc(C(=O)NC2CC2)c2ccccc12)NC(c1ccc(Cl)c(C(F)(F)F)c1)C(F)(F)F` (stereo not drawn) [Example 1.66], the “efficacy (EC80)” value stood at 50 ppb. Under `O=C(/C=C/c1ccc(C(=O)NC2CC2)c2ccccc12)NC(c1cccc2ccccc12)C(F)(F)F` (stereo not drawn) [Example 1.82] stands 50 ppb; under `Cc1cc(/C=C/C(=O)NC(c2cccc(C(F)(F)F)c2)C(F)(F)F)sc1C(=O)NC1CC1` (stereo not drawn) [Example 2.4], 50 ppb; under `O=C(/C=C/c1ccc(C(=O)NC2CC2)c2cccnc12)NC(c1cccc(C(F)(F)F)c1)C(F)(F)F` (stereo not drawn) [Example 3.2], 50 ppb. With `O=C(/C=C/c1ccc(C(=O)NC2CC2)c2ccccc12)NC(c1cccc(C(F)(F)F)c1)C(F)(F)F` (stereo not drawn) [Example 4.1], the “efficacy (EC80)” value was determined as 50 ppb.
